According to US20250099475A1, “METHODS OF TREATING HYPERTENSION BY PERIODIC SUPPRESSION OF ALDOSTERONE SYNTHASE” (Mineralys Therapeutics, Inc., priority 2022, published 2025):

Assays:
Format in all cases: in vivo, human
plasma aldosterone (PAC) [1] = assay: Phase 1 part 1 single ascending dose: pharmacodynamics; conditions: for PAC reduction compared with placebo: 24 hours post-dose; for Aldosterone AUC0-24, mean (SD): Day 1; for return of baseline aldosterone levels by: single 100-mg doses; for effect on cortisol: single ascending doses
Method: In part 1, Compound A HBr or placebo was administered to 64 healthy Caucasian men aged 18 to 55 years (inclusive) in 8 cohorts of 8 participants each. In each cohort, 6 participants were randomized to receive a single dose of Compound A HBr and 2 participants were randomized to receive matching placebo. All cohorts included 2 sentinel participants of whom 1 received Compound A HBr and 1 received matching placebo. The remaining 6 participants, of whom 5 received Compound A HBr and 1 received placebo, were dosed ≥24 hours following the sentinel participants. The dosing cohorts were 5, 10, 20, 50, 100, 200, 400, and 800 mg. Doses were administered in an ascending order per cohort, with a minimum 10-day interval between consecutive dose levels. Participants received a single dose of Compound A HBr or placebo in the fasted state.
(§1) Plasma concentrations of aldosterone, 11-deoxycortisol, and ACTH; renin activity; renin concentration; and serum concentrations of cortisol and 11-DOC were measured in all parts of the study. The amount of aldosterone, cortisol, sodium, and potassium excreted and the urinary log10 (10×Na^+/K^+) ratio were listed per collection interval.
(§2) PD parameters were derived by non-compartmental analysis using WinNonlin® Professional (version 6.3). AUC0-24 was determined where possible for plasma aldosterone and serum cortisol.
(§3) Log-transformed change from baseline (Day 1, pre-dose) at 24 hours and log-transformed change from baseline at 22 hours on Day 1 (where baseline is Day −1, 22 hours) in plasma aldosterone and serum cortisol were analyzed using a linear model with dose group (each Compound A HBr dose and pooled placebo) as a fixed effect with the corresponding Day 1 pre-dose as a covariate. The LSM difference between each Compound A HBr dose compared with placebo was obtained from the model with the 90% CI and then back-transformed (exponentiated) to obtain estimates of the ratio of adjusted geometric means and 90% CI. Log-transformed change from baseline (time-matched) from 0 to 24 hours post-dose in plasma aldosterone and serum cortisol as repeated measures was analyzed using a linear mixed model with dose group (each active Compound A HBr dose and pooled placebo) as fixed effects, corresponding time-matched values on Day −1 as covariate, and unstructured covariance. The pre-dose time point on Day 1 was used as the 24-hour time point on Day −1. The LSM difference between each Compound A HBr dose compared with placebo was obtained from the model together with the 90% CI, and then back-transformed to obtain estimates of the ratio of adjusted geometric means and 90% CIs. The calculated AUC parameters were analyzed using a linear model. The log-transformed parameter of interest was the dependent variable with dose group (each Compound A HBr dose and pooled placebo) as the fixed effect and log-transformed AUC0-24 on Day −1 as the covariate. The LSM difference between each Compound A HBr dose compared with placebo and 90% CIs was calculated and then back-transformed to obtain estimates of the ratio of adjusted geometric means and 90% CIs.

plasma aldosterone (PAC) [2] = assay: Phase 1 part 2 multiple ascending dose: pharmacodynamics, ACTH challenge; conditions: for Aldosterone AUC0-24, mean (SD): Day 7; for return of baseline aldosterone levels by: multiple 120-mg doses
Method: In part 2, Compound A HBr or placebo was administered to a total of 36 healthy Caucasian men aged 19 to 54 years (inclusive) in 3 cohorts of 12 participants each. In each cohort, 9 participants were randomized to receive multiple doses of Compound A HBr and 3 participants were randomized to receive matching placebo. The participants received daily doses in the fed state from Day 1 to Day 7. The doses were administered in an ascending order per cohort. Progression to the next dose level and dose selection were based on available data from part 1 and the preceding dose cohort in part 2 (safety, tolerability, and PD data [up to 48 hours post-final dose] and available PK data [up to 24 hours post-final dose] from a minimum of 10 participants [Compound A HBr n≥7] in the preceding dose cohort). The final dose levels of Compound A HBr for part 2 were 40, 120, and 360 mg. An ACTH challenge test was performed on Day −2 and on Day 6 to evaluate Compound A HBr selectivity for aldosterone synthesis. Plasma concentrations of aldosterone and 11-deoxycortisol and serum concentrations of cortisol and 11-DOC were measured pre-ACTH dose and 30 and 60 minutes post-ACTH dose on Day −2 and Day 6.
as §1, §2, §3

[3] = Phase 1 safety and tolerability
Method: A 4-part, Phase 1 randomized, double-blind, placebo-controlled, first-in-human study was performed to determine the safety, tolerability, PK, and PD of single ascending doses (SADs; part 1) and multiple ascending doses (MADs; part 2) of Compound A HBr in healthy participants. The study also assessed whether there were sex (part 3) and age-related (part 4) effects on the PK of a single dose of Compound A HBr. The study was approved by the local independent ethics committee; the BEBO foundation in Assen, Netherlands; and the Central Committee on Research Involving Human Subjects in The Hague, Netherlands; and conducted according to the provisions of the Declaration of Helsinki. Written informed consent was obtained from each study participant before conducting any protocol-related procedures.
Safety measurements (adverse events [AE], safety laboratory, vital signs and electrocardiograms, physical examinations) were summarized and/or listed.

Structure (SMILES): CC(=O)N[C@H]1CC[C@H](NC(=O)CN2CCN(c3nncc(-c4ccc(C)cc4)n3)CC2)CC1 [Compound A HBr]
- PAC reduction compared with placebo (plasma aldosterone (PAC) [1]; single doses of 100 and 200 mg): approximately −40%
- PAC reduction compared with placebo (plasma aldosterone (PAC) [1]; single doses of 400 and 800 mg): approximately −70%
- Aldosterone AUC0-24, mean (SD) (plasma aldosterone (PAC) [1]; single 5 mg): 1436 (531) ng × h/dL
- Aldosterone AUC0-24, mean (SD) (plasma aldosterone (PAC) [1]; single 10 mg): 1075 (418) ng × h/dL
- Aldosterone AUC0-24, mean (SD) (plasma aldosterone (PAC) [1]; single 20 mg): 911 (286) ng × h/dL
- Aldosterone AUC0-24, mean (SD) (plasma aldosterone (PAC) [1]; single 50 mg): 731 (247) ng × h/dL
- Aldosterone AUC0-24, mean (SD) (plasma aldosterone (PAC) [1]; single 100 mg): 562 (279) ng × h/dL
- Aldosterone AUC0-24, mean (SD) (plasma aldosterone (PAC) [1]; single 200 mg): 587 (115) ng × h/dL
- Aldosterone AUC0-24, mean (SD) (plasma aldosterone (PAC) [1]; single 400 mg): 403 (122) ng × h/dL
- Aldosterone AUC0-24, mean (SD) (plasma aldosterone (PAC) [1]; single 800 mg): 347 (108) ng × h/dL
- PAC returned to values near baseline within (plasma aldosterone (PAC) [1]; single 5-50 mg): ≤ 24 hours post-dose
- duration of PAC reduction (plasma aldosterone (PAC) [1]; single 100-800 mg): sustained until 24 hours post-dose
- return of baseline aldosterone levels by (plasma aldosterone (PAC) [1]): ≤ 16 h
- effect on cortisol (plasma aldosterone (PAC) [1]): no dose-related effect on cortisol
- decrease of AUC0-24 for PAC vs placebo (plasma aldosterone (PAC) [1]; single doses ranging from 10 to 800 mg): −36% to −77
- Aldosterone AUC0-24, mean (SD) (plasma aldosterone (PAC) [2]; 40 mg once daily): 1343 (702) ng × h/dL
- Aldosterone AUC0-24, mean (SD) (plasma aldosterone (PAC) [2]; 120 mg once daily): 1013 (312) ng × h/dL
- Aldosterone AUC0-24, mean (SD) (plasma aldosterone (PAC) [2]; 360 mg once daily): 771 (440) ng × h/dL
- 11-DOC and 11-deoxycortisol concentrations after ACTH stimulation (plasma aldosterone (PAC) [2]; 360 mg, Day 6, compared to placebo): trend in increase
- reduction in AUC0-24 for PAC compared to placebo (plasma aldosterone (PAC) [2]; 360 mg, after seven once-daily doses): approximately −50%
- ACTH-stimulated cortisol response (plasma aldosterone (PAC) [2]; Day 6, all multiple dose levels): no effect on the cortisol response
- ACTH-stimulated aldosterone response (plasma aldosterone (PAC) [2]; Day 6, all multiple dose levels, compared to placebo): completely blunted
- changes in serum cortisol and plasma 11-deoxycortisol concentrations (plasma aldosterone (PAC) [2]; during multiple dosing): No relevant changes from baseline
- return of baseline aldosterone levels by (plasma aldosterone (PAC) [2]): ≤ 16 h
- dizziness (of mild intensity), participants ([3]; across all cohorts): 9 (10.3%)
- serious AEs ([3]; healthy participants, all parts): No serious AEs

Structure (SMILES): CC(=O)N[C@H]1CC[C@H](NC(=O)CN2CCN(c3nncc(-c4ccc(C)cc4)n3)CC2)CC1 [Compound A]
- urinary log10 (10×Na+/K+) ratio (plasma aldosterone (PAC) [1]; SAD, doses of ≥10 mg): produced an increase
- PAC (AUC0-24) reduced by (plasma aldosterone (PAC) [1]; single 100- to 200-mg doses): up to 40%
- return of baseline aldosterone levels by (plasma aldosterone (PAC) [1]): ≤ 16 h
- PAC (AUC0-24) reduced by (plasma aldosterone (PAC) [1]; single 400- to 800-mg doses): up to 70%
- effect on cortisol (plasma aldosterone (PAC) [1]): no meaningful effect on serum cortisol levels
- accumulation of serum 11-DOC (plasma aldosterone (PAC) [2]; 40- and 120-mg daily cohorts): did not exceed the normal range
- accumulation of serum 11-DOC (plasma aldosterone (PAC) [2]; 360-mg daily dose cohort): much more dramatic increase in 11-DOC
- maximum PAC suppression maintained for (plasma aldosterone (PAC) [2]; MAD, doses of 40, 120, and 360 mg): approximately 12 hours
- return of baseline aldosterone levels at (plasma aldosterone (PAC) [2]; daily dosing): ~16 h
- return of baseline aldosterone levels by (plasma aldosterone (PAC) [2]): ≤ 16 h
- serum 11-DOC, plasma renin activity, and potassium concentrations (plasma aldosterone (PAC) [2]; once-daily administration, all dose levels compared to placebo): appeared to increase
- rise in serum potassium (plasma aldosterone (PAC) [2]; within 2 days of initiation, all 3 dose cohorts (part 2)): approximately 0.5 mmol/L
- tolerability ([3]; single doses up to 800 mg fasting, once-daily up to 360 mg fed, healthy men): well-tolerated
